Converted amounts (≈) assume the structure as drawn. A value given as a limit tells only on which side of the number the result lay.

We go through 7 molecules from US12024504B2, “1-methyl-1H-pyrazol-3-yl derivatives for use in the treatment of neovascular diseases” (EXONATE LIMITED, priority 2021, dated 2024).

For one series, the target named is T1, SRPK1 (Homo sapiens, UniProt Q96SB4).
T1 construct: purchased MRC Dundee Kinase Centre (external assay service)
In words: In vitro kinase assay (radioactive filter binding, 33P ATP). Format: biochemical. As for the experimental part:
Kinase assays were carried out by the MRC Dundee Kinase Centre using a radioactive filter binding assay using ^33P ATP (Hastie, et al 2006. Nat Protoc. 2006; 1(2):968-71; Bain, et al 2007. Biochem J. 2007 Dec. 15; 408(3):297-315).

Series [1] in a line: Porcine scleral permeability (modified Ussing chamber). The format is in vitro ADME. The following applies: for Papp at 24 h, 10 μg/mL: pig, pH 7.4, porcine excised eye tissue, 10 μg/mL compound on donor side. As for the experimental part:
Scleral permeability was measured using a modified Ussing chamber assembly in the initial eye drop formulation containing 1% hydroxypropyl methyl cellulose, 0.2% tyloxapol, 3.4% dextrose, 0.006% benzalkonium chloride, and 0.025% ethylenediaminetetraacetic acid with 1% DMSO in PBS (pH 7.4). Porcine excised eye tissues were mounted in the chambers such that the episcleral side faced the donor chamber and the retinal side faced the receiver chamber. The chambers were filled with equal volumes of eye drop formulation, with (donor side) or without (receiver side) 10 μg/mL compound. After 24 hours tissue was removed from the chamber and the receiver side (“vitreous”) sampled. Tissue was dissected into sclera, choroid/RPE, and retina and homogenised. A tracer (SPHINX7; WO 2015/159103) was added, and tissue extracted by acetonitrile extraction as described in Batson et al (2017). Compounds were then analysed by mass spectrometry as described in Batson et al (2017).
To determine whether compounds could get across the sclera of a larger animal, porcine sclera was clamped between two chambers and compounds were added to the sclera with eye drop formulation added to the bottom chamber and compounds added to the top chamber. After 24 hours, the fluid from the bottom chamber (vitreous) and the retinal tissue was isolated and compounds purified by methanol or acetonitrile extraction and HPLC.

The test system of series [2] is choroidal neovascularisation. The settings on record: mouse models of choroidal neovascularisation, previously shown; cited from earlier work.
The nature of series [3]: Solubility in eye drop formulation. Format: physicochemical. The following applies: aqueous with cosolvent or surfactant or cyclodextrin; initial eye drop formulation (1% HPMC, 0.2% tyloxapol, 3.4% dextrose, 1% DMSO in PBS); read-out: Maximum limit of solubility.
The subject of the next series is VEGF165b and VEGF165. The following applies: cited from earlier work.
For series [4] the following is noted: 0.5 mg monthly, at one year; cited from earlier work.

T1 sequence (Q96SB4 whole entry): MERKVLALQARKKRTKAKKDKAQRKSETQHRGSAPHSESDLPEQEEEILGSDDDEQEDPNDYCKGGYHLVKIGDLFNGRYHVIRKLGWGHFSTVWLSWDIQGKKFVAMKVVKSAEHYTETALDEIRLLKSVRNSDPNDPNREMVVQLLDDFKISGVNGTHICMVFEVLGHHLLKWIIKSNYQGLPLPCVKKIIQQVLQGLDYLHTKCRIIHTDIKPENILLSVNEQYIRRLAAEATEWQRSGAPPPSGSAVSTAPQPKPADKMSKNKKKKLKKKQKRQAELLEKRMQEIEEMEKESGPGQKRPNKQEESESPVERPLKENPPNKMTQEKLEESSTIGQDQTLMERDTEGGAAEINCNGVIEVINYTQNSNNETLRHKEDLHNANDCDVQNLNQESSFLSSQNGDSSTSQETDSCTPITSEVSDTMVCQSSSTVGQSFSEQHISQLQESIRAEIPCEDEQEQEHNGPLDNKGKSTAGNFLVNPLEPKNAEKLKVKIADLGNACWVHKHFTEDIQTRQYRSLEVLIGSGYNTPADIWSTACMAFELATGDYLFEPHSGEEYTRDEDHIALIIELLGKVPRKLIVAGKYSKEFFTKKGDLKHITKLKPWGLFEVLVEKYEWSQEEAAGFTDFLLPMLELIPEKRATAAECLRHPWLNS

`Cn1ccc(CN2CCCN(c3ccc(C(F)(F)F)cc3NC(=O)c3ccc(C4CCOCC4)o3)CC2)n1` [Compound 2, N-(2-(4-((1-methyl-1H-pyrazol-3-yl)methyl)-1,4-diazepan-1-yl)-5-(trifluoromethyl)phenyl)-5-(tetrahydro-2H-pyran-4-yl)furan-2-carboxamide]: the IC50 at SRPK1 stood at 10 nM. For the same molecule, the Papp at 24 h, 10 μg/mL in series [1] stood at 0.0442 ×10⁻⁶ cm/s.
As to `Cn1ccc(CN2CCCN(c3ccc(Cl)cc3NC(=O)c3ccc(C4CCOCC4)o3)CC2)n1` [Compound 3, N-(5-chloro-2-(4-((1-methyl-1H-pyrazol-3-yl)methyl)-1,4-diazepan-1-yl)phenyl)-5-(tetrahydro-2H-pyran-4-yl)furan-2-carboxamide], the melting point is 148 to 150 °C. For the same molecule, the 50% inhibitory concentration (IC50) on SRPK1 amounted to 35 nM. Moreover, the Papp at 24 h, 10 μg/mL in series [1] was 0.0675 ×10⁻⁶ cm/s.
For the molecule `O=C(Nc1cc(C(F)(F)F)ccc1N1CCN(Cc2cc[nH]n2)CC1)c1ccc(C2CCOCC2)o1` [Compound R, N-(2-(4-((1H-pyrazol-3-yl)methyl)piperazin-1-yl)-5-(trifluoromethyl)-phenyl)-5-(tetrahydro-2H-pyran-4-yl)furan-2-carboxamide, reference compound], the “Permeability across porcine sclera (in words)” value in series [1] (24 hours, FIG. 1) is given as “considerably lower permeability”.
For the molecule `O=C(Nc1cc(C(F)(F)F)ccc1N1CCN(Cc2ccccn2)CC1)c1ccc(-c2ccncc2)o1` [SPHINX31], the “Eye drop concentration of maximum effect” value in series [2] is 2 µg/mL.
With `Cc1ccc(Nc2nccc(N(C)c3ccc4c(C)n(C)nc4c3)n2)cc1S(N)(=O)=O` [pazopanib], in series [3], the solubility was found to be 80 µg/mL (≈ 183 µM).
Regarding “bevicizumab: an anti-VEGF antibody from which Lucentis was derived”, in the series with VEGF165b and VEGF165, the “Binding of VEGF165b relative to VEGF165” value is “equal potency”.

B1: Lucentis: a novel humanized anti-VEGF antibody fragment (antibody, chains of the INN, looked up, V domains shown)
VH: EVQLVESGGGLVQPGGSLRLSCAASGYDFTHYGMNWVRQAPGKGLEWVGWINTYTGEPTYAADFKRRFTFSLDTSKSTAYLQMNSLRAEDTAVYYCAKYPYYYGTSHWYFDVWGQGTLVTVSS
VL: DIQLTQSPSSLSASVGDRVTITCSASQDISNYLNWYQQKPGKAPKVLIYFTSSLHSGVPSRFSGSGSGTDFTLTISSLQPEDFATYYCQQYSTVPWTFGQGTKVEIK
modifications: Fab
notes: a novel humanized anti-VEGF antibody fragment
Take B1: in series [4], the “Patients who maintained visual acuity (loss of <15 letters)” value was “approximately 95%” and the “Patients with improved vision (gain of ≥15 letters)” value was ≤ 40%.

The IC50 is the point on the concentration scale where inhibition reaches its midpoint. What is called Papp is a coefficient for how fast a substance crosses the barrier. Usually melting point stands for the temperature, or range, at which the solid turns liquid. A word on the solubility: it is how much of the substance goes into solution per volume.
